Test results from patent publication US20260365677A1, “NEW CONTRAST AGENTS FOR USE IN DIAGNOSTIC IMAGING” (Bayer Aktiengesellschaft, priority 2022, published 2026).

Biological target: T1, OATP1B1 (Homo sapiens, UniProt Q9Y6L6)
T1 construct: expressed in transfected cells
T1 sequence (Q9Y6L6 1-691): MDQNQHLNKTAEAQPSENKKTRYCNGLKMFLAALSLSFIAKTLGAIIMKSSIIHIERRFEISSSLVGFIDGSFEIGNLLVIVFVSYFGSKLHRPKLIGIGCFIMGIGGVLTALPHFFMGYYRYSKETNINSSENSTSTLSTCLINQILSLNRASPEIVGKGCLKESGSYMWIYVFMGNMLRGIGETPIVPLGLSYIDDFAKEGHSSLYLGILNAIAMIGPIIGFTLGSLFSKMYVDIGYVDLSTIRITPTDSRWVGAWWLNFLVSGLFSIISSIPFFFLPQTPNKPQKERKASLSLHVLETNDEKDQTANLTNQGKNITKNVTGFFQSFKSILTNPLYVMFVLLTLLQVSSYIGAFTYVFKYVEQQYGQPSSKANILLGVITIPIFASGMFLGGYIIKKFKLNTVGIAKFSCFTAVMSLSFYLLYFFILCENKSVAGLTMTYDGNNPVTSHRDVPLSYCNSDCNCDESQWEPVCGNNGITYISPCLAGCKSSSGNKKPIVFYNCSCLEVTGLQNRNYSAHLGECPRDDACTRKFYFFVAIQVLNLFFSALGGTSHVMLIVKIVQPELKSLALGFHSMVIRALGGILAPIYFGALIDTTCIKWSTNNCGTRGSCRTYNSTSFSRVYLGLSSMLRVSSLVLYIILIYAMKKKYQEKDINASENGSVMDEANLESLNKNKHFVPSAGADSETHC
Assay: Uptake into stable transfected OATP1B1 HEK 293 cells
Format: cell-based
Conditions: 100 μM, 40 min, relative to RC1 (Gd-EOB-DTPA)
Procedure: Human stable transfected OATP1 B1 human embryonic kidney 293 cells (OATP1 B1 HEK 293, SLCO1B1, Entrez Gene ID: 10599) were used (Leonhardt M et al. Drug Metab Dispos. 2010 July; 38(7):1024-8). The following culture medium was used: 500 mL DMEM (Dulbecco's Modified Eagle Medium—high Glucose, D6429), 50 mL FCS (fetal bovine serum, Fa. Sigma, F7524), 5.8 mL G418 (Geneticin, Fa. Gibco 10131-027) and 5 mL Pen-Strep. (Penicillin-Streptomycin, Fa. Gibco, Ref 15140-122). Cryopreserved cells were shortly thawed in water bath and diluted in 10 mL warm culture medium (37 °C). After medium change the cells were grown for 3d in a 25 cm^2 cell culture flask. After 3 to 5d the cells were transferred into 75 cm^2 flasks. For the splitting the cells were incubated with 1.5 mL trypsin (Trypsin-EDTA (1×) 0.05%, Ref 25300-054 100 ml, Fa. Gibco) for 3-5 min in the incubator (37 °C, 5% CO2 and 95% oxygen). After centrifugation and washing with medium the cells were counted (50 μL cell suspension and 50 μL trypan blue (Trypan Blue Solution, 93595-50 ml, Fa. Fluka). Cells were cultured (1×10^5 cells/well) in poly-D-lysine coated 24-well plates (Fa. Corning, Ref: 354414) in 1.5 mL medium per well. After 48 h in the incubator the medium was changed and 1.5 mL/well sodium butyrate containing medium were added (40 mL culture medium plus 400 μL Na-Butyrate, Fa. Sigma Aldrich B5887-5G, 250 mg in 2.27 mL MilliQ water). After 24 h in the incubator the medium was vacuumed off and 1.5 mL transport buffer was added and incubated for 10 min. The transport buffer contains the following ingredients: 500 mL HBSS (Hank's balanced salt solution, Hyclone, SH30268.01), 5 mL HEPES buffer (4-(2-hydroxyethyl)-1-piperazine-ethanesulfonic acid, Gibco 15630-056) and 3.9 mL glucose (Sigma, G8270-100, 90 g/200 mL MilliQ water). All test items were prepared in transport buffer at a final concentration of 100 μM from stock solutions (180 to 500 mM concentration). The OATP1B1 HEK 293 cells were incubated with test solutions (test item in transport buffer 500 μL) for 40 min on a thermoshaker without shaking (PHMP, Fa. Grant Bio). Triplicates were performed for each test item. After incubation the cells were washed with 2 mL of cold PBS (+) buffer (Dulbeccos PBS+, Fa. Gibco). […] As a reference standard Gd-EOB-DTPA (gadoxetate) is used in the same well plate. The OATP1B1 HEK 293 uptake of the test compound is calculated relative to gadoxetate (resulting in the unit % of RC1).

Structure (SMILES) | Uptake into OATP1B1-HEK 293 cells
CCOCCOCCOc1ccc(C[C@H]2CN(CC(=O)[O-])CCN(CC(=O)[O-])CCN(CC(=O)O)CCN2CC(=O)[O-])cc1.[Gd+3] [Example 2, Gadolinium-2,2′,2″-[(2S)-10-(carboxymethyl)-2-{4-[2-(2-ethoxyethoxy)ethoxy]benzyl}-1,4,7,10-tetraazacyclododecane-1,4,7-triyl]triacetate] | 282 % of RC1
CCOCCOCCOc1ccc(C[C@H]2CN(CC(=O)[O-])CCN(CC(=O)[O-])CCN(CC(=O)O)CCN2CC(=O)[O-])nc1.[Gd+3] [Example 6, Gadolinium 2,2′,2″-[(2S)-10-(carboxymethyl)-2-({5-[2-(2-ethoxyethoxy)ethoxy]pyridin-2-yl}methyl)-1,4,7,10-tetraazacyclododecane-1,4,7-triyl]triacetate] | 174 % of RC1
CCOc1ccc(CC2CN(CC(=O)[O-])CCN(CC(=O)[O-])CCN(CC(=O)O)CCN2CC(=O)[O-])cc1.[Gd+3] (stereo not shown) [Example 7, Gadolinium-2,2′,2″-[10-(carboxymethyl)-2-(4-ethoxybenzyl)-1,4,7,10-tetraazacyclododecane-1,4,7-triyl]triacetate] | 103 % of RC1
CCOc1ccc(CC2CN(CC(=O)[O-])CCN(CC(=O)[O-])CCN(CC(=O)O)CCN2CC(=O)[O-])cc1.[Gd+3] (single isomer, unassigned; diastereomer 2) [Example 9, Gadolinium-2,2′,2″-[10-(carboxymethyl)-2-(4-ethoxybenzyl)-1,4,7,10-tetraazacyclododecane-1,4,7-triyl]triacetate (racemic diastereomer 2)] | 60 % of RC1
CCOCCOc1ccc(C[C@H]2CN(CC(=O)[O-])CCN(CC(=O)[O-])CCN(CC(=O)O)CCN2CC(=O)[O-])cc1.[Gd+3] [Example 4, Gadolinium-2,2′,2″-{(2S)-10-(carboxymethyl)-2-[4-(2-ethoxyethoxy)benzyl]-1,4,7,10-tetraazacyclododecane-1,4,7-triyl}triacetate] | 65 % of RC1
COCCOCCOCCOc1ccc(C[C@H]2CN(CC(=O)[O-])CCN(CC(=O)[O-])CCN(CC(=O)O)CCN2CC(=O)[O-])cc1.[Gd+3] [Example 1, Gadolinium-2,2′,2″-[(2S)-10-(carboxymethyl)-2-(4-{2-[2-(2-methoxyethoxy)-ethoxy]ethoxy}benzyl)-1,4,7,10-tetraazacyclododecane-1,4,7-triyl]triacetate] | 143 % of RC1
COCCOCCOCCOc1ccc(C[C@@H]2CN(CC(=O)[O-])CCN(CC(=O)[O-])CCN(CC(=O)O)CCN2CC(=O)[O-])cc1.[Gd+3] [Example 3, Gadolinium-2,2′,2″-[(2R)-10-(carboxymethyl)-2-(4-{2-[2-(2-methoxyethoxy)ethoxy]ethoxy}benzyl)-1,4,7,10-tetraazacyclododecane-1,4,7-triyl]triacetate] | 120 % of RC1
CCCCOc1ccc(C[C@H]2CN(CC(=O)[O-])CCN(CC(=O)[O-])CCN(CC(=O)O)CCN2CC(=O)[O-])cc1.[Gd+3] (single isomer, unassigned; stereoisomer 2) [Example 13] | 847 % of RC1
CCCCOc1ccc(C[C@H]2CN(CC(=O)[O-])CCN(CC(=O)[O-])CCN(CC(=O)O)CCN2CC(=O)[O-])cc1.[Gd+3] (single isomer, unassigned; stereoisomer 1) [Example 12] | 119 % of RC1
CCOc1ccc(C[C@H]2CN(CC(=O)[O-])CCN(CC(=O)[O-])CCN(CC(=O)O)CCN2CC(=O)[O-])cc1.[Gd+3] (single isomer, unassigned; stereoisomer 1) [Example 10] | 212 % of RC1
CCOc1ccc(CC2CN(CC(=O)[O-])CCN(CC(=O)[O-])CCN(CC(=O)O)CCN2CC(=O)[O-])cc1.[Gd+3] (single isomer, unassigned; diastereomer 1) [Example 8, Gadolinium-2,2′,2″-[10-(carboxymethyl)-2-(4-ethoxybenzyl)-1,4,7,10-tetraazacyclododecane-1,4,7-triyl]triacetate (racemic diastereomer 1)] | 208 % of RC1
CCOCCOCCOCCOc1ccc(C[C@H]2CN(CC(=O)[O-])CCN(CC(=O)[O-])CCN(CC(=O)O)CCN2CC(=O)[O-])cc1.[Gd+3] [Example 5, Gadolinium-2,2′,2″-[(2S)-10-(carboxymethyl)-2-(4-{2-[2-(2-ethoxyethoxy)ethoxy]ethoxy}benzyl)-1,4,7,10-tetraazacyclododecane-1,4,7-triyl]triacetate] | 78 % of RC1
CCOc1ccc(C[C@H]2CN(CC(=O)[O-])CCN(CC(=O)[O-])CCN(CC(=O)O)CCN2CC(=O)[O-])cc1.[Gd+3] (single isomer, unassigned; stereoisomer 2) [Example 11] | 96 % of RC1
